The results in this text go back to patent publication US20190262409A1, “NOVEL LACTOBACILLUS SAKEI AND COMPOSITION COMPRISING THE SAME” (CJ Cheiljedang Corporation, priority 2016, published 2019).

Common to all, as to format: in vivo
In assay [1] the test system is obesity induced mice with high fat diet. Nature of the assay: Measurement of size of adipocytes in high fat diet mice. Particulars: compared to HFD and GC groups; CJLS03 high concentration group (FIG. 13). An excerpt:
(§1) From the time of arrival, all animals underwent a 6-week induction period, including a one-week acclimation period. The mice were divided into normal diet (negative control) and high fat diet (positive control and experiment group) and each fed, while given feed and water ad libitum for 6 weeks from the day of division (day 0). The CJLS03 according to the present disclosure was grouped according to concentrations (low: 10^8 CFU, medium: 10^9 CFU, high: 10^10 CFU). […]
(§2) For administration, the lactic acid bacteria were homogeneously suspended in PBS and administered in a 10 mL/kg of administration volume twice daily at determined times (10:00 A.M. to 11:00 A.M., 5:00 P.M. to 6:00 P.M.) for 7 weeks, while the control groups were orally administered with the same amount of solvent vehicle (PBS) twice daily for 7 weeks. […]
Measuring the size of adipocytes is well known as an effective method capable of proving the anti-obesity efficacy. […] The adipocyte photos were analyzed using the Scion image program (derived from NIH Image) by calculating an average value of two adipocyte sizes. […]

The test system is the same in assay [2]. Briefly: Autopsy and blood biochemistry examination in high fat diet mice. Particulars: serum, day 49, 16 h fasted, compared to HFD or GC group (FIG. 9). An excerpt: (§3) From the time of arrival, all animals underwent a 6-week induction period, including a one-week acclimation period. The mice were divided into normal diet (negative control) and high fat diet (positive control and experiment group) and each fed, while given feed and water ad libitum for 6 weeks from the day of division (day 0). The CJLS03 according to the present disclosure was grouped according to concentrations (low: 10^8 CFU, medium: 10^9 CFU, high: 10^10 CFU). To measure accurate efficacy, a commercially available FDA-approved anti-obesity drug Orlistat (Product name: Zenical), and a health function food Garcinia cambogia were added as experiment groups in addition to the normal diet control group and high fat diet group, and compared with the anti-obesity function of the lactic acid bacterial.
For administration, the lactic acid bacteria were homogeneously suspended in PBS and administered in a 10 mL/kg of administration volume twice daily at determined times (10:00 A.M. to 11:00 A.M., 5:00 P.M. to 6:00 P.M.) for 7 weeks, while the control groups were orally administered with the same amount of solvent vehicle (PBS) twice daily for 7 weeks. Experimental substances were newly prepared and administered into the A.M. and P.M.-administered strain. All strains were stored under refrigeration so as to retain the active condition thereof, and the PBS which was refrigerated was used for washing strain samples and preparing solutions. The experimental animal of each group was fasted for 16 hours and sacrificed on the termination day of experiment (day 49) to be used for blood biochemistry tests and histological evaluation analysis.
On the day of termination of the experiment according to Example 4-1 (day 49), the experimental animals were sacrificed after stopping their diets for 16 hours and autopsied. All of the experimental animals were subjected to collection of about 500 μL to 700 μL of blood using a heparin-free capillary tube of plexus venosus under an ether inhalation anesthesia. The collected blood was put in an SST tube and coagulated for 30 minutes to 1 hour at room temperature. The blood was then centrifuged at 4° C. and 4000 rpm for 10 minutes to separate the serum followed by storing at −80° C. until the analysis. The amounts of glucose (GLU), triglyceride (TG), total cholesterol (TC), low-density lipoprotein cholesterol (LDL), high-density lipoprotein cholesterol (HDL), glutamate oxaloacetate transaminase (GOT; AST), glutamate pyruvate transaminase (GPT; ALT), CREA (creatinine), and lactate dehydrogenase (LDH) in the separated serum were measured using a blood biochemistry (Accute TBA-40FR, Toshiba Medical System Co., Japan).

Assay [3] has the same test system. Nature of the assay: Measurement of organ fat weight in high fat diet mice. Particulars: compared with HFD group (FIGS. 10 and 11).
Text: as §1, §2
After blood was collected, the visceral examination was carried out to confirm the presence of abnormalities in the internal organs, and the adipose tissues (epididymal fat, subcutaneous fat, mesenteric fat) were extracted. […] The weight of each adipose tissue was measured with an electronic balance. Additionally, the relative tissue weight per 100 g of body weight was calculated based on the body weight fasted before autopsy (calculation formula: relative organ weight (%)=organ weight (g)/fasting body weight before autopsy (g)×100). […]

For assay [4] the test system is unchanged. Briefly: Histological evaluation of liver tissue (H & E) in high fat diet mice. Particulars: H & E stained liver sections; CJLS03 high concentration group (FIG. 12).
Text: as §3
For administration, the lactic acid bacteria were homogeneously suspended in PBS and administered in a 10 mL/kg of administration volume twice daily at determined times (10:00 A.M. to 11:00 A.M., 5:00 P.M. to 6:00 P.M.) for 7 weeks, while the control groups were orally administered with the same amount of solvent vehicle (PBS) twice daily for 7 weeks. Experimental substances were newly prepared and administered into the A.M. and P.M.-administered strain. […]
Liver tissues of the ND, HFD, OLS, GC, and high CJLS03 concentration groups were histologically evaluated. […]

The structures appear in SMILES notation.

For the molecule `CCCCCCCCCCC[C@@H](C[C@@H]1OC(=O)[C@H]1CCCCCC)OC(=O)[C@H](CC(C)C)NC=O` [OLS, Orlistat], the “sizes of the adipocytes” value in assay [1] was “significantly reduced”. Besides, in assay [2], the “concentration of blood HDL” value is on record as “significantly reduce”, the “concentration of blood LDL” value was “significantly reduce”, the “concentration of blood TC (total cholesterol)” value was “significantly reduce” and the “concentration of blood glucose” value was “significantly reduce”. Also, in assay [3] (body weight after 16 h fasting before autopsy), the fasting weight entry was “lower than those of the HFD group”. In addition, the adipose tissue weights result in assay [3] (epididymal, subcutaneous, mesenteric fat) is “lower than those of the HFD group”. Besides, the “lipid particles in liver tissue” value in assay [4] is reported as “rarely found”.
